The source of these data is patent US6566355B1 (Hoffmann-La Roche Inc., priority 1991, dated 2003).

Where a name gives a salt, the structure may show the parent alone.

By MIC is commonly meant the smallest concentration in the dilution series that meets the test's criterion for growth inhibition.

In the first assay the target is T1, β-lactamase (Citrobacter freundii, UniProt P05193).
T1 construct: Various β-lactamases can be isolated from penicillin- or cephalosporin-resistant bacterial strains such as; endogenous in cells; host or cells: Citrobacter freundii 1203 (enzyme purified from the crude cell extract, after ampicillin induction when necessary)
T1 sequence (P05193 21-381): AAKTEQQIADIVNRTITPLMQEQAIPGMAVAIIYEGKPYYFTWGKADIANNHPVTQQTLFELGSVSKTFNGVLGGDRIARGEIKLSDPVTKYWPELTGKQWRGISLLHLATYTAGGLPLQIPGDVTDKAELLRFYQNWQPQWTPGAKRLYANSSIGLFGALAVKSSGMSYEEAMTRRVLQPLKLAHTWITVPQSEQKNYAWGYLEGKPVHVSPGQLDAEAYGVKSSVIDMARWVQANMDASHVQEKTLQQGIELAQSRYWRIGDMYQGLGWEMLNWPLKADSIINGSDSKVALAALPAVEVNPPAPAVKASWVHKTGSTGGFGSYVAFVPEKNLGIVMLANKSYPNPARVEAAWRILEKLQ
The assay is described as follows: biochemical.
Conditions: not given
On the procedure: A. Isolation of the β-lactamases
Various β-lactamases can be isolated from penicillin- or cephalosporin-resistant bacterial strains such as Klebsiella pneumoniae NCTC 418, Proteus vulgaris 1028, Bacillus licheniformis 749/C, Escherichia coli SN01 and Citrobacter freundii 1203. For this purpose, the corresponding strains are cultivated in Tryptic Soy Broth (Difco) and harvested by centrifugation in the last logarithmic growth phase (when necessary 50-100 mg/l of ampicillin are added to the medium towards the end of the log-phase in order to induce the β-lactamase). The thus-obtained bacterial mass is treated with 20 mM Tris-HCl buffer (pH 7.0); the cells are broken open with a French press while cooling. The mixture is centrifuged (20,000 r/min.) for 20-30 minutes and a clear crude extract is obtained.
B. Determination of the β-lactamase activity
The determination of the activity of the isolated β-lactamases can be carried out according to the method of O'Callaghan, C. H. et al. [Antimicr. Ag. Chemother., 1, 283-288 (1972)] using the chromogenic cephalosporin nitrocefin (87/312 from Glaxo). The requisite test batch contains per ml of water: 50 mM phosphate buffer (pH 7.0), 0.1 mM nitrocefin and sufficient enzyme (β-lactamase) to achieve a ΔA/min. of about 0.1. The cleavage of the substrate, which is accompanied by a change in colour, is effected at 37° C. and is followed quantitatively at 482 nm using a spectral photometer.
C. Determination of the β-lactamase-inhibiting activity of the compounds of general formula I
The above-described cleavage of the chromogenic substrate by β-lactamases (test B.) can be inhibited by the addition of compounds of general formula I (inhibitors). […] As a measurement for the affinity of the particular tested inhibitor to the β-lactamase, which is a measurement of the strength of the inhibitor, there serves that concentration which inhibits by 50% (IC 50 in nM) the cleavage of the substrate (nitrocefin) effected under the above test conditions (test B) in the absence of an inhibitor. […] The determination of the IC50 was effected by means of a graph.
(Test organism: Citrobacter freundii)
`O=C(NC1CC1)N1CC[C@@H]2[C@H]1C(=O)N2S(=O)(=O)O` [17(i), (1S,5R)-2-Cyclopropylcarbamoyl)-7-oxo-2,6-diazabicyclo[3.2.0]heptane-6-sulphonic acid sodium salt] displayed an IC50 of 245 nM. Same read-out and setting: to `O=C1SCC[C@@H]1NC(=O)N1CC[C@@H]2[C@H]1C(=O)N2S(=O)(=O)O` [17(t), (1S,5R)-7-Oxo-2-(S)-(2-oxo-3-tetrahydrothienyl-carbamoyl)-2,6-diazabicyclo[3.2.0]heptane-6-sulphonic acid sodium salt] belongs 53 nM.

With `O=C(NC1CCC1)N1CC[C@@H]2[C@H]1C(=O)N2S(=O)(=O)O` [17(h), (1S,5R)-2-Cyclobutylcarbamoyl)-7-oxo-2,6-diazabicyclo[3.2.0]heptane-6-sulphonic acid sodium salt], the IC50 is 145 nM. The same measure, in the same setting: to `O=C(NCC(=O)N1CC[C@@H]2[C@H]1C(=O)N2S(=O)(=O)O)OCc1ccccc1` [4(g), Benzyl[[[(1S,5R)-7-oxo-6-sulpho-2,6-diazabicyclo[3.2.0]-hept-2-yl]carbonyl]methyl]carbamate] belongs 390 nM. `O=C(NCc1cccs1)N1CC[C@@H]2[C@H]1C(=O)N2S(=O)(=O)O` [17(p), (1S,5R)-2-(2-Thien-2-ylmethylcarbamoyl)-7-oxo-2,6-diazabicyclo[3.2.0]heptane-6-sulphonic acid sodium salt]: the IC50 turned out to be 383 nM.

The same assay, now with this note: IC 50 nM, isolated β-lactamase of Citrobacter freundii; substrate nitrocefin 0.1 mM; 15 minutes pre-incubation with inhibitor; 37° C., pH 7.0.
For `O=C(CNc1ccc2c(C(F)(F)F)cc(=O)oc2c1)N1CC[C@@H]2[C@H]1C(=O)N2S(=O)(=O)O` [5(n), (1S,5R)-2-[N-[2-Oxo-4-(trifluoromethyl)-2H-1-benzopyran-7-yl]glycyl]-7-oxo-2,6-diazabicyclo[3.2.0]heptane-6-sulphonic acid sodium salt], the IC50 was 67 nM. Still for that read-out and setting: for `Cn1nnnc1S[C@@H]1CN(C(=O)OCc2ccccc2)[C@@H]2C(=O)N(S(=O)(=O)O)[C@@H]21` [Example 22, (1S,4R,5S)-2-Benzyloxycarbonyl-4-(1-methyl-1H-tetrazol-5-yl-thio)-7-oxo-2,6-diazabicyclo[3.2.0]heptane-6-sulphonic acid sodium salt] the value was 220 nM; for `NC(=O)/C=C1\CN(C(=O)OCc2ccccc2)[C@@H]2C(=O)N(S(=O)(=O)O)[C@H]12` [14(b), (1S,5R)(E)-2-Benzyloxycarbonyl-4-carbamoylmethylene-7-oxo-2,6-diazabicyclo[3.2.0]heptane-6-sulphonic acid sodium salt], 65 nM.

`O=C(Nc1ccc(O)cc1)N1CC[C@@H]2[C@H]1C(=O)N2S(=O)(=O)O` [17(w), (1S,5R)-2-(4-Hydroxyphenylcarbamoyl)-7-oxo-2,6-diazabicyclo[3.2.0]heptane-6-sulphonic acid sodium salt] had an IC50 of 109 nM. On the same count and under the same terms, for `Nc1nnc(SCC(=O)Nc2nnc(SCC(=O)N3CC[C@@H]4[C@H]3C(=O)N4S(=O)(=O)O)s2)s1` [6(w), (1S,5R)-2-[5-(5-Amino-1,3,4-thiadiazol-2-ylsulfanylacetylamino)-1,3,4-thiadiazol-2-ylsulfanylacetyl]-7-oxo-2,6-diazabicyclo[3.2.0]heptane-6-sulfonic acid sodium salt] the value was 22 nM. Same read-out and setting: to `O=C(OCc1ccccc1)N1C[C@H](F)[C@@H]2[C@H]1C(=O)N2S(=O)(=O)O` [16(a), (1S,4S,5S)-4-Fluoro-7-oxo-6-sulpho-2,6-diazabicyclo[3.2.0]heptane-2-carboxylic acid benzyl ester sodium salt] belongs 14 nM. Same read-out and setting: for `NC(=O)/C=C1/CN(C(=O)OCc2ccccc2)[C@@H]2C(=O)N(S(=O)(=O)O)[C@H]12` [14(c), (1S,5R)(Z)-2-Benzyloxycarbonyl-4-carbamoylmethylene-7-oxo-2,6-diazabicyclo[3.2.0]heptane-6-sulphonic acid sodium salt] the value was 826 nM. `COC(=O)/C=C1\CN(C(=O)OCc2ccccc2)[C@@H]2C(=O)N(S(=O)(=O)O)[C@H]12` [14(a), (1S,5R)-(E)-4-Methoxycarbonylmethylene-7-oxo-6-sulpho-2,6-diazabicyclo[3.2.0]heptane-2-carboxylic acid benzyl ester sodium salt] returned an IC50 of 32 nM. Same read-out and setting: to `O=C(OCc1ccccc1)N1C[C@@H](Cl)[C@@H]2[C@H]1C(=O)N2S(=O)(=O)O` [16(b), (1S,4R,5S)-2-Benzyloxycarbonyl-4-chloro-7-oxo-2,6-diazabicyclo[3.2.0]heptane-6-sulphonic acid sodium salt] belongs 334 nM; to `O=C(/C=C/c1ccc(O)cc1)N1CC[C@@H]2[C@H]1C(=O)N2S(=O)(=O)O` [6(t), (1S,5R)-(E)-2-[3-(4-Hydroxy-phenyl)acryloyl]-7-oxo-2,6-diazabicyclo[3.2.0]heptane-6-sulphonic acid sodium salt], 12 nM; to `O=C(Nc1cccc(O)c1)N1CC[C@@H]2[C@H]1C(=O)N2S(=O)(=O)O` [17(s), (1S,5R)-2-(3-Hydroxyphenylcarbamoyl)-7-oxo-2,6-diazabicyclo[3.2.0]heptane-6-sulphonic acid sodium salt], 38 nM. On the same count and under the same terms, for `O=C(OCc1ccccc1)N1C[C@@H](Cl)[C@@H]2[C@H]1C(=O)N2S(=O)(=O)O` [Example 15, (1S,4R,5S)-2-Benzyloxycarbonyl-4-chloro-7-oxo-2,6-diazabicyclo[3.2.0]heptane-6-sulphonic acid sodium salt] the value was 630 nM.

The same assay, now with this note: isolated β-lactamase of Citrobacter freundii; substrate nitrocefin 0.1 mM; 15 minutes pre-incubation with inhibitor; 37° C., pH 7.0; read-out: IC 50 nM.
`CC(C)(C)OC(=O)N1CC[C@@H]2[C@H]1C(=O)N2S(=O)(=O)O` [1(b), sodium salt]: the IC50 was 225 nM. Regarding `O=C(c1cc2ccccc2[nH]1)N1CC[C@@H]2[C@H]1C(=O)N2S(=O)(=O)O` (racemic) [6(j)], the IC50 came out at 280 nM.

The same assay, now with this note: read-out: IC 50 nM; isolated β-lactamase of Citrobacter freundii; substrate nitrocefin 0.1 mM; 15 minutes pre-incubation with inhibitor; 37° C., pH 7.0.
For `O=C1[C@H](NC(=O)N2CC[C@@H]3[C@H]2C(=O)N3S(=O)(=O)O)CCN1O` [17(r), sodium salt], the IC50 stood at 490 nM.

Another assay relates to Citrobacter freundii. The assay is described as follows: MIC in vitro of a 1:4 combination of ceftriaxone with a compound of formula I (test D). The settings on record: 1:4 combination of ceftriaxone with the compound. The assay is classed as cell-based. Here is the method: D. Determination of the β-lactamase-inhibiting activity by combination of a compound of general formula I with ceftriaxone
The minimum inhibitory concentration in vitro (MIC in μg/ml) of a 1:4 combination of ceftriaxone with a compound of formula I against Citrobacter freundii is measured and compiled in Table 2 hereinafter.
Turning to `CCN(CC)CC.O=C([C@@H](O)c1ccccc1)N1CC[C@@H]2[C@H]1C(=O)N2S(=O)(=O)O` [6(l), (1S,5R)-2-[(S)-α-Hydroxyphenylacetyl]-7-oxo-2,6-diazabicyclo[3.2.0]heptane-6-sulphonic triethylamine salt (1:1)], the minimal inhibitory concentration (MIC) was 8 µg/mL. On the same count and under the same terms, to `COC(=O)NN1CC[C@@H]2[C@H]1C(=O)N2S(=O)(=O)[O-].[Na+]` [Example 18, Methyl (1S,5R)-7-oxo-6-sulpho-2,6-diazabicyclo[3.2.0]heptane-2-carbamate sodium salt] belongs 1 µg/mL; to `O=C([C@H](O)c1ccccc1)N1CC[C@@H]2[C@H]1C(=O)N2S(=O)(=O)[O-].[Na+]` [6(k), (1S,5R)-2-[(R)-α-Hydroxyphenylacetyl]-7-oxo-2,6-diazabicyclo[3.4.0]heptane-6-sulphonic acid sodium salt (1:1)], 8 µg/mL.

Take `CC(=O)N/C(=C\c1ccccc1)C(=O)N1CC[C@@H]2[C@H]1C(=O)N2S(=O)(=O)[O-].[Na+]` [5(f), (1S,5R)-2-[(Z)-3-α-Acetamidocinnamoyl]-7-oxo-2,6-diazabicyclo[3.2.0]heptane-6-sulphonic acid sodium salt]: the “MIC” value was 16 µg/mL. Same read-out and setting: to `CCN(CC)CC.Nc1nc(C(N)C(=O)N2CC[C@@H]3[C@H]2C(=O)N3S(=O)(=O)O)cs1` (mixture of isomers) [6(r), (1S,5R)-2-[DL-2-(2-Amino-4-thiazolyl)glycyl] -7-oxo-2,6-diazabicyclo[3.2.0]heptane-6-sulphonic acid triethylamine salt] belongs 2 µg/mL. Still for that read-out and setting: to `CSCC[C@@H](NC(=O)c1ccccc1)C(=O)N1CC[C@@H]2[C@H]1C(=O)N2S(=O)(=O)O.[Na]` [5(h), (1S,5R)-2-[(R,S)-2-Benzamido-4-(methylthio)butyryl]-7-oxo-2,6-diazabicyclo[3.2.0]heptane-6-sulphonic acid sodium salt] belongs 4 µg/mL; to “(1S,5R)-(E)-3-Phenyl-acryloyl-2,6-diazabicyclo[3.2.0]heptane-6-sulphonic acid sodium salt [11(a)]”, 8 µg/mL.

The same assay, now with this note: ceftriaxone alone (control), read-out: MIC.
For the compound `CO/N=C(\C(=O)N[C@@H]1C(=O)N2C(C(=O)O)=C(CSc3nc(=O)c(=O)[nH]n3C)CS[C@H]12)c1csc(N)n1` [Ceftriaxone, ceftriaxone, reference compound], the MIC is 128 µg/mL.
